Tests used:
Assay type in all cases: cell-based
[1] = target: T1, EGFR L858R (BaF3-L858R cells) (Homo sapiens, UniProt P00533, L858R); experiment: Cell degradation of EGFR, HTRF assay, BaF3-L858R cells; conditions: 16 h treatment; for DC50: EGFR degradation; for Dmax: maximum percentage of degradation
T1 construct: host or cells: BaF3
Summary of the method: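 EGFR L858R levels measured by HTRF antibody pair in lysed BaF3-L858R cells after 16 h compound exposure (8-point 5-fold series from 10 uM final, 37° C). Degradation is relative to DMSO-only cells; DC50 fitted with Hill equation, Dmax taken as the largest percent loss.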

[2] = target: T2, EGFR-L858R/C797S (H1975-clone #8 cells) (Homo sapiens, UniProt P00533, C797S/L858R); experiment: Cell degradation of EGFR, HTRF assay, H1975-clone#8 (L858R/C797S) cells; conditions: 16 h treatment; for DC50: EGFR degradation; for Dmax: maximum percentage of degradation
T2 construct: expressed in transfected cells; host or cells: H1975 (endogenous EGFR knocked out, clone #8)

[3] = target: T3, p-EGFR L858R (BaF3-L858R cells) (Homo sapiens, UniProt P00533, L858R); experiment: Cell p-EGFR inhibition assay, HTRF, BaF3-L858R cells; conditions: 16 h treatment; for Imax (%): maximum percentage of pEGFR inhibition; for IC50: pEGFR inhibition
T3 construct: host or cells: BaF3
Summary of the method: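 BaF3-L858R cells treated 16 h at 37 °C, 5% CO2 with compound from 10 uM top, 5-fold dilutions, 8 doses, in 0.1% DMSO medium. Lysates read overnight by HTRF p-EGFR antibodies; IC50 fitted to four-parameter curve against DMSO high control.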

[4] = target: p-EGFR Del19/C797S (H1975-clone #23 cells) (Homo sapiens, UniProt P00533); experiment: Cell p-EGFR inhibition assay, HTRF, H1975-clone#23 (DEL19/C797S) cells; conditions: 16 h treatment; for Imax (%): maximum percentage of pEGFR inhibition; for IC50: pEGFR inhibition
Summary of the method: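 Phospho-EGFR read by overnight HTRF on lysates, normalized to DMSO-treated high control; IC50, Hill slope and Imax fitted. Compounds were applied for 16 h (10 uM top, 5-fold steps, 8 doses) to an H1975 single clone carrying only exogenous Del19/C797S EGFR after sgRNA knockout of endogenous copies.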

| SMILES | DC50 [1] | Dmax [1] | DC50 [2] | Dmax [2] | Imax (%) [3] | IC50 [3] | Imax (%) [4] | IC50 [4] |
| --- | --- | --- | --- | --- | --- | --- | --- | --- |
| Cc1cc2cc(n1)-c1c(C)nn(C)c1OC[C@H]1CCC(C1)CN1/C(=N/C2=O)Nc2ccc(N3CCC(N(C)C4CCN(c5cc(F)c([C@H]6CCC(=O)NC6=O)c(F)c5)CC4)CC3)cc21 [Example 136, (R)-3-(2,6-difluoro-4-(4-(methyl(1-((7^1R,7^3S,E)-1^1,1^3,2^6-trimethyl-3-oxo-5^2,5^3-dihydro-1^1H,5^1H-9-oxa-4-aza-5(2,1)-benzo[d]imidazola-2(2,4)-pyridina-1(4,5)-pyrazola-7(1,3)-cyclopentanacyclononaphane-5^6-yl)piperidin-4-yl)amino)piperidin-1-yl)phenyl)piperidine-2,6-dione] | 3.52 nM | 81.1% | 0.152 nM | 76.1% | 104.73% | 8.91 nM | 103.49% | 1.44 nM |
| Cc1cc2cc(n1)-c1cnn(C)c1OC[C@H]1CC[C@H](C1)CN1/C(=N/C2=O)Nc2ccc(N3CCN(C4CCN(c5ccc(OC6CCC(=O)NC6=O)nc5C)CC4)CC3)cc21 (some centres unmarked) [Example 137, 3-((5-(4-(4-((7^1R,7^3S,E)-1^1,2^6-dimethyl-3-oxo-5^2,5^3-dihydro-1^1H,5^1H-9-oxa-4-aza-5(2,1)-benzo[d]imidazola-2(2,4)-pyridina-1(4,5)-pyrazola-7(1,3)-cyclopentanacyclononaphane-5^6-yl)piperazin-1-yl)piperidin-1-yl)-6-methylpyridin-2-yl)oxy)piperidine-2,6-dione] | 2.37 nM | 83.3% | 3.35 nM | 78.2% | 96.47% | 14.6 nM | 98.8% | 0.528 nM |
| Cc1cc2cc(n1)-c1c(C)nn(C)c1OC[C@H]1CC[C@H](C1)CN1/C(=N/C2=O)Nc2ccc(N3CCC(CN(C)C4CCN(c5cc(F)c([C@H]6CCC(=O)NC6=O)c(F)c5)CC4)CC3)cc21 [Example 138, (R)-3-(2,6-difluoro-4-(4-(methyl((1-((7^1R,7^3S,E)-1^1,1^3,2^6-trimethyl-3-oxo-5^2′5^3-dihydro-1^1H,5^1H-9-oxa-4-aza-5(2,1)-benzo[d]imidazola-2(2,4)-pyridina-1(4,5)-pyrazola-7(1,3)-cyclopentanacyclononaphane-5^6-yl)piperidin-4-yl)methyl)amino)piperidin-1-yl)phenyl)piperidine-2,6-dione] | 3.61 nM | 85.5% | 1.27 nM | 83.4% | 104.27% | 7.09 nM | 102.96% | 1.37 nM |
| COC[C@H]1CN(c2ccc3c(c2)N2C[C@@H]4CC[C@H](COc5c(c(C)nn5C)-c5cc(cc(C)n5)C(=O)/N=C/2N3)C4)CCN1C1CCN(c2ccc(OC3CCC(=O)NC3=O)cc2C)CC1 (stereo partly drawn) [Example 140, 3-(4-(4-((R)-2-(methoxymethyl)-4-((7^1R,7^3S,E)-1^1,1^3,2^6-trimethyl-3-oxo-5^2,5^3-dihydro-1^1H,5^1H-9-oxa-4-aza-5(2,1)-benzo[d]imidazola-2(2,4)-pyridina-1(4,5)-pyrazola-7(1,3)-cyclopentanacyclononaphane-5^6-yl)piperazin-1-yl)piperidin-1-yl)-3-methylphenoxy)piperidine-2,6-dione] | 3.04 nM | 93.3% | 1.94 nM | 85.6% | 96.47% | 6.86 nM | 101.57% | 1.03 nM |
| COC[C@H]1CN(c2ccc3c(c2)N2C[C@@H]4CC[C@H](COc5c(c(C)nn5C)-c5cc(cc(C)n5)C(=O)/N=C/2N3)C4)CCN1C1CCN(c2c(C)cc(C3CCC(=O)NC3=O)nc2C)CC1 (stereo partly drawn) [Example 141, 3-(5-(4-((R)-2-(methoxymethyl)-4-((7^1R,7^3S,E)-1^1,1^3,2^6-trimethyl-3-oxo-5^2,5^3-dihydro-1^1H,5^1H-9-oxa-4-aza-5(2,1)-benzo[d]imidazola-2(2,4)-pyridina-1(4,5)-pyrazola-7(1,3)-cyclopentanacyclononaphane-5^6-yl)piperazin-1-yl)piperidin-1-yl)-4,6-dimethylpyridin-2-yl)piperidine-2,6-dione] | 1.13 nM | 87.5% | 0.804 nM | 66.1% | 98.22% | 7.7 nM | 100.38% | 0.825 nM |
| Cc1cc2cc(n1)-c1c(C)nn(C)c1OC[C@H]1CC[C@H](C1)CN1/C(=N/C2=O)Nc2ccc(N3CCC(N(C)C4CN(c5cc(F)c([C@H]6CCC(=O)NC6=O)c(F)c5)C4)CC3)cc21 [Example 142, (R)-3-(2,6-difluoro-4-(3-(methyl(1-((7^1R,7^3S,E)-1^1,1^3,2^6-trimethyl-3-oxo-5^2,5^3-dihydro-1^1H,5^1H-9-oxa-4-aza-5(2,1)-benzo[d]imidazola-2(2,4)-pyridina-1(4,5)-pyrazola-7(1,3)-cyclopentanacyclononaphane-5^6-yl)piperidin-4-yl)amino)azetidin-1-yl)phenyl)piperidine-2,6-dione] | 7.26 nM | 80.3% | 0.748 nM | 87.3% | 97.8% | 4.77 nM | 102.03% | 1.42 nM |
| Cc1cc2cc(n1)-c1c(C)nn(C)c1OC[C@H]1CC[C@H](C1)CN1/C(=N/C2=O)Nc2ccc(N(C)C3CCN(C4CCN(c5cc(F)c([C@H]6CCC(=O)NC6=O)c(F)c5)CC4)CC3)cc21 [Example 143, (R)-3-(2,6-difluoro-4-(4-(methyl((7^1R,7^3S,E)-1^1,1^3,2^6-trimethyl-3-oxo-5^2,5^3-dihydro-1^1H,5^1H-9-oxa-4-aza-5(2,1)-benzo[d]imidazola-2(2,4)-pyridina-1(4,5)-pyrazola-7(1,3)-cyclopentanacyclononaphane-5^6-yl)amino)-[1,4′-bipiperidin]-1-yl)phenyl)piperidine-2,6-dione] | 5.23 nM | 74.3% | 1.51 nM | 82% | 98.2% | 7.8 nM | 101.28% | 1.15 nM |
| Cc1cc2cc(n1)-c1c(C)nn(C)c1OC[C@H]1CC[C@H](C1)CN1/C(=N/C2=O)Nc2ccc(N3CCN([C@@H]4CCN(c5ccc(OC6CCC(=O)NC6=O)cc5)C[C@@H]4F)CC3)cc21 (stereo partly drawn) [Example 144, 3-(4-((3S,4R)-3-fluoro-4-(4-((7^1R,7^3S,E)-1^1,1^3,2^6-trimethyl-3-oxo-5^2,5^3-dihydro-1^1H,5^1H-9-oxa-4-aza-5(2,1)-benzo[d]imidazola-2(2,4)-pyridina-1(4,5)-pyrazola-7(1,3)-cyclopentanacyclononaphane-5^6-yl)piperazin-1-yl)piperidin-1-yl)phenoxy)piperidine-2,6-dione] | 3.1 nM | 73.6% | 0.938 nM | 84.8% | 98.7% | 5.5 nM | 100.78% | 0.97 nM |
| COC[C@H]1CN(c2ccc3c(c2)N2C[C@H]4CC[C@@H](COc5c(c(C)nn5C)-c5cc(cc(C)n5)C(=O)/N=C/2N3)C4)CCN1C1CCN(c2cc(F)c([C@H]3CCC(=O)NC3=O)c(F)c2)CC1 [Example 150, (R)-3-(2,6-difluoro-4-(4-((R)-2-(methoxymethyl)-4-((7S,7^3R,E)-1^1,1^3,2^6-trimethyl-3-oxo-5^2,5^3-dihydro-1^1H,5^1H-9-oxa-4-aza-5(2,1)-benzo[d]imidazola-2(2,4)-pyridina-1(4,5)-pyrazola-7(1,3)-cyclopentanacyclononaphane-5^6-yl)piperazin-1-yl)piperidin-1-yl)phenyl)piperidine-2,6-dione] | 8.77 nM | 90.5% | 7.29 nM | 85% | 91.27% | 72.1 nM | 100.12% | 2.16 nM |
| COC[C@@H]1CN(c2cc3c(cc2OC)N/C2=N\C(=O)c4cc(C)nc(c4)-c4c(C)nn(C)c4OC[C@H]4CC[C@H](C4)CN23)CCN1C1CCN(c2cc(F)c([C@H]3CCC(=O)NC3=O)c(F)c2)CC1 [Example 151, (R)-3-(2,6-difluoro-4-(4-((S)-4-((7^1R,7^3S,E)-5^5-methoxy-1^1,1^3,2^6-trimethyl-3-oxo-5^2,5^3-dihydro-1^1H,5^1H-9-oxa-4-aza-5(2,1)-benzo[d]imidazola-2(2,4)-pyridina-1(4,5)-pyrazola-7(1,3)-cyclopentanacyclononaphane-5^6-yl)-2-(methoxymethyl)piperazin-1-yl)piperidin-1-yl)phenyl)piperidine-2,6-dione] | 1.68 nM | 90.6% | 2.62 nM | 88.5% | 95.95% | 5.03 nM | 99.54% | 1.02 nM |
